In patent US20070122395A1, “Genetic and pharmacological regulation of antidepressant-sensitive biogenic amine transporters through PKG/p38 map kinase” (Vanderbilt University, priority 2005, published 2007):
Read-outs that look alike come from different tables or passages of the source.

Columns and labels:
[1] = tested on: rat SERT expressed by RBL-2H3 cells; assay: [3H]5-HT transport assay in RBL-2H3 cells; format: cell-based; conditions: for blockade of NECA-induced 5-HT uptake: ODQ 10 μm, NECA 1 μm; for blockade of 8-Br-cGMP stimulation of SERT: data not shown
[2] = molecular target: hSERT Pro339Leu (P339L) (Homo sapiens, UniProt P31645, P339L)
Experimental: (§1) Transfection and Transport Studies. HeLa cells, maintained at 37° C. in a 5% CO2 humidified incubator, were grown in complete medium (Dulbecco's Modified Eagle's Medium (DMEM, Invitrogen), 10% fetal bovine serum, 2 mM L-glutamine, 100 units/ml penicillin, and 100 μg/ml streptomycin).
(§2) Transport, Binding, Biotinylation and Phosphorylation Studies. […] To establish levels and biosynthetic progression of hSERT protein produced from mutant cDNAs, HeLa cells were plated in 6-well dishes at 500,000 cells per well and transfected 12 h later. Twenty four hours after transfection, whole cell detergent extracts were blotted for hSERT (mAb Technologies, Inc., 1:1000) using enhanced chemiluminescence (ECL, Amersham) detection.

[3] = molecular target: T1, hSERT (Homo sapiens, UniProt P31645); assay: [3H]5-HT transport (SERT uptake) assay in transfected HeLa cells; format: cell-based
T1 construct: The full-length cDNA encoding hSERT in the mammalian expression vector pcDNA3.1; expressed in transfected cells; host or cells: HeLa
Experimental: as §1, §2

[4] = molecular target: T2, hSERT Ile425Val (I425V) (Homo sapiens, UniProt P31645, I425V); assay: as above; format: cell-based
T2 construct: The full-length cDNA encoding hSERT in the mammalian expression vector pcDNA3.1; expressed in transfected cells; host or cells: HeLa
Experimental: as §1, §2

[5] = molecular target: T3, native SERT in RN46A cells (Rattus norvegicus, UniProt P31652); assay: [3H]5-HT transport assay in RN46A cells; format: cell-based; conditions: for blockade of anisomycin-stimulated 5-HT uptake: SB203580, ODQ 10 μm, H8 0.1 μm
T3 construct: derived from rat E13 raphenucleus, that expresses native SERT; endogenous in cells; host or cells: RN46A cells
T3 sequence (P31652 whole entry): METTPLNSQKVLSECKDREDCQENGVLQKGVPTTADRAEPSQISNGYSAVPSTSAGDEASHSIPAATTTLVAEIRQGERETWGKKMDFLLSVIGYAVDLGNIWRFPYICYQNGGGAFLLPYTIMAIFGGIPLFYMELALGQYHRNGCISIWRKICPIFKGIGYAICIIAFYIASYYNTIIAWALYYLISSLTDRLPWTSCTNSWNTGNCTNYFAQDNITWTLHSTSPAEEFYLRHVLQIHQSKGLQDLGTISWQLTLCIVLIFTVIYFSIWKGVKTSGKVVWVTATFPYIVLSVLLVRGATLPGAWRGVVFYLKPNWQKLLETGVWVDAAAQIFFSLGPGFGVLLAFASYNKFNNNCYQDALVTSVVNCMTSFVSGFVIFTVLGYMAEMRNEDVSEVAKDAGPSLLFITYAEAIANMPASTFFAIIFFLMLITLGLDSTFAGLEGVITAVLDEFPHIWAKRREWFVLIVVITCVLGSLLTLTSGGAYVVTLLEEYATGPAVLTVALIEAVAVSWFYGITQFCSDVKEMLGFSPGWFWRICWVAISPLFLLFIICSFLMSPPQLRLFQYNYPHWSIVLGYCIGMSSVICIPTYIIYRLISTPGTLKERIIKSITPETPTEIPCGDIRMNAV

[6] = tested on: p38 MAPK; format: cell-based, rat
Experimental: Assays of p38 MAPK Activation. […] Medium was removed by aspiration, and cells were washed once with KRH buffer and then incubated in triplicate at 37° C. in KRH buffer with or without p38 MAPK activators for 5-10 min. Assay buffer was removed, and cells were immediately fixed with fresh 4% formaldehyde (Sigma) in PBS for 20 min at room temperature and washed four times with 1×PBS containing 0.1% Triton X-100 (Sigma) (5 min per wash) prior to 1 h of blocking with Odyssey blocking buffer (Li-Cor Biosciences, Lincoln, Nebr.). RBL-2H3 cells were subsequently probed with dual phosphorylated (Thr(P) and Tyr(P)) p38 MAPK polyclonal antibody (Cell Signaling; 1:400) in Odyssey blocking buffer with gentle mixing for 2 h at room temperature. Cells were then washed four times with 1×PBS containing 0.1% Tween 20 (Sigma) for 5 min. Bound antibody was detected with fluorescence-labeled secondary antibody-Alexa Fluor® 680 (avoiding exposure to light; 1:200 in Odyssey Blocking Buffer, Molecular Probes, Inc., Eugene, Oreg.) for 1 h. After four washes with 1×PBS, 0.1% Tween 20, the plate was scanned, and the captured image of the signal was processed and quantified with the Odyssey™ Infrared Imaging System (Li-Cor Biosciences). For UV radiation to activate p38 MAPK, plates seeded with cells were placed in a UV source (UV Stratalinker 1800, Stratagene, La Jolla, Calif.) that was preset to deliver 4×10^4 μJ/cm^2 at room temperature.

[7] = molecular target: T4, SERT in RBL-2H3 cells (Rattus norvegicus, UniProt P31652); assay: [125I]RTI-55 binding to intact RBL-2H3 cells; format: cell-based; conditions: for SERT surface density (5-HT-displaceable [125I]RTI-55 binding): anisomycin 1 μm, fostriecin 5 nM, NECA 1 μm, 10 min
T4 construct: As with rat SERT expressed by RBL-2H3 cells; host or cells: RBL-2H3 cells (intact cells, 4° C.)
T4 sequence (P31652 whole entry): as above
Text: Binding was terminated by two rapid washes with ice-cold PBS/CM.

[8] = molecular target: T1, hSERT; assay: [125I]RTI-55 binding to intact transfected HeLa cells (surface and total SERT); format: cell-based; conditions: paroxetine as displacer; data not shown
[9] = tested on: five hSERT variants that failed to elicit uptake increases; assay: [125I]RTI-55 surface binding to intact transfected HeLa cells, non-responsive variants; format: cell-based, human; conditions: H8
[10] = tested on: lymphocytes homozygous for the Gly variant (hSERT Gly56); assay: 5-HT uptake in genotyped lymphocyte lines; format: cell-based, human; conditions: H8 versus 8BrcGMP; SB203580 versus anisomycin
Text: Genotyping and Lymphocyte Studies. Lymphocyte lines were derived from autistic pedigrees recruited by Susan E. Folstein (Johns Hopkins Univ), from the Autism Genetics Resource Exchange (AGRE) collection (www.agre.org/), and from the NIMH Human Genetics Initiative Repository (www.nimhgenetics.org/) at Rutgers University. DNA from lymphoblastoid cell lines was genotyped via TaqMan-based allelic discrimination, using an Applied Biosystems (Foster City, Calif.) Assay-by-Design and independently confirmed by PCR and direct sequence analysis. […] Lymphocyte were pelleted at 1500 rpm, 5 min and washed with KRH assay buffer. A total of 1×10^6 cells in triplicate were pre-warmed (37° C.) in a shaking water bath (10 min) in 12×75 polypropylene tubes in KRH buffer containing 100 μM pargyline and 100 μM ascorbic acid+/−modifiers.

[11] = tested on: rat SERT expressed by RBL-2H3 cells; conditions: Zhu et al., 2004a,b; cited from earlier work
[12] = tested on: human NET; assay: monoamine uptake assay in transfected CHO cells; format: cell-based; conditions: SB203580 preincubation 15 min
Experimental: Cell Culture and Transfection. […] CHO cells (ATCC, Manassas, Va.) were maintained at 37° C. in Dulbecco's MEM containing 10% fetal bovine serum, 1% L-Glu, 100 IU/ml penicillin, and 100 μg/ml streptomycin. For comparison of the response of monoamine transporters to p38 MAPK activation, CHO cells were transfected with cDNAs for hSERT, hDAT, or hNET (100 ng/well for a 24-well plate). Transfections of CHO cells were performed using TransIT-LT1 Transfection Reagent (Mirus, Madison, Wis.) according to the manufacturer's protocol (0.3 μl/well). hSERT, hDAT, or hNET cDNAs were preincubated with the reagent at ambient temperature for 30 min before being added to plated CHO cells. Cells were cultured for 24 h after transfection. The transfection mixture was removed just prior to assay.
CHO cells were plated at 20,000 cells/well 16-24 h before transfection, and the uptake assay was performed 24 h following the transfection. […] Medium was removed by aspiration, and cells were washed once with Krebs-Ringer HEPES (KRH) buffer containing 130 mM NaCl, 1.3 mM KCl, 2.2 mM CaCl2, 1.2 mM MgSO4, 1.2 mM KH2PO4, 1.8 g/liter glucose, 10 mM HEPES, pH 7.4. […] Cells were solubilized with 0.5 ml of Microscint 20 (PerkinElmer Life Sciences), and tritium-labeled monoamine accumulation was quantitated using a TopCount plate scintillation counter (PerkinElmer Life Sciences).

[13] = pretreatment, then anisomycin 1 μm 10 min, SB compounds, curcumin, PD98059, ODQ 10 μm, H8 0.1 μm, DT-2 1.0 μm, fostriecin 5 nM, MTSET 10 mM, siRNA 100 nM 48 h

## COc1cccc(-c2cc(=O)c3ccccc3o2)c1N [PD98059]
[1]
  blockade of anisomycin-stimulated 5-HT uptake / SERT activity: failed to block

## NCCc1c[nH]c2ccc(O)cc12 [5-HT, 5-hydroxytryptamine]
[2]
  5-HT Vmax: 3.0+/−1.2 % of hSERT
[2]; saturation kinetics
  5-HT Vmax: 1.2 ± 0.11 fmol/well/min
[3]; saturation kinetics, hSERT
  5-HT Vmax: 416.2+19 fmol/well/min
[4]
  5-HT Vmax: 190+/−28 % of hSERT
[4]; saturation kinetics
  5-HT Vmax: 789.5+28 fmol/well/min
[1]; read-out: SERT Km for 5-HT, RBL-2H3, vehicle
  Km: 1.06 ± 0.145 µM
[5]; read-out: SERT Km for 5-HT, RN46A, vehicle
  Km: 0.799 ± 0.097 µM

## CCNC(=O)[C@H]1O[C@@H](n2cnc3c(N)ncnc32)[C@H](O)[C@@H]1O [NECA]
[6]; 5 min treatment
  level of p38 MAPK phosphorylation stimulation: comparable to stimulation achieved with 8-bromo-cGMP
[6]; data not shown
  total p38 MAPK levels: No changes
[7]; acute treatment
  total SERT (paroxetine-displaceable [125I]RTI-55 binding): does not change
[7]
  SERT surface density (5-HT-displaceable [125I]RTI-55 binding): significant increase

## C[N+](C)(C)CCSS(C)(=O)=O [MTSET, [2-(Trimethylammonium)ethyl]methanethiosulfonate]
[1]
  blockade of anisomycin-stimulated 5-HT uptake / SERT activity: abolished

## CNCCNS(=O)(=O)c1cccc2cnccc12 [H8, N-[2-(methylamino)ethy]-5-isoquinoline sulfonamide]
[3]
  antagonism of 8BrcGMP stimulation of 5-HT transport: completely antagonized
[8]
  total [125I]RTI-55 binding: no effects on total binding
[9]
  blockade of 8BrcGMP-induced reduction in surface density: completely blocked
[10]
  antagonist sensitivity of stimulated 5-HT transport: sensitive to H8
[1]; H8 0.1 μm, DT-2 1.0 μm
  blockade of NECA-induced 5-HT uptake: abolish
[1]
  blockade of 8-Br-cGMP stimulation of SERT: blocked
[1]; [13]
  blockade of anisomycin-stimulated 5-HT uptake / SERT activity: failed to attenuate
[5]; RN46A, DT-2 1.0 μm
  blockade of anisomycin-stimulated 5-HT uptake: failed to attenuate

## O=c1onc2cnc3ccccc3n12 [ODQ, 1H-(1,2,4)-oxadiazolo[4,3-a]quinoxalin-1-one]
[1]
  blockade of anisomycin-stimulated 5-HT uptake / SERT activity: neither agent attenuated anisomycin stimulation
[1]; H8 0.1 μm, DT-2 1.0 μm
  blockade of NECA-induced 5-HT uptake: abolish
[5]; RN46A, DT-2 1.0 μm
  blockade of anisomycin-stimulated 5-HT uptake: neither agent attenuated anisomycin stimulation
[11]
  blockade of AR stimulation of SERT: completely abolished

## OO [H2O2, hydrogen peroxide]
[1]
  stimulation of 5-HT transport activity: stimulated 5-HT transport to a level comparable with 1 μm anisomycin

## C[C@@](O)(/C=C/[C@H]1CC=CC(=O)O1)[C@@H](C[C@@H](O)\C=C/C=C\C=C\CO)OP(=O)(O)O [fostriecin]
[1]
  5-HT uptake at higher concentrations: inhibit basal 5-HT uptake
  blockade of anisomycin-stimulated 5-HT uptake / SERT activity: completely blocks
[7]
  SERT surface density (5-HT-displaceable [125I]RTI-55 binding): did not impact the binding
[7]; concentration that completely blocks anisomycin stimulation
  blockade of NECA-induced enhancement of SERT surface density: fails to block

## CCc1nc(-c2ccc(OC)cc2)[nH]c1-c1ccncc1 [SB202474]
[1]
  blockade of anisomycin-stimulated 5-HT uptake / SERT activity: lacked antagonistic activity

## COC[C@@H]([C@H](O)[C@H](O)C(=O)NCC[C@H](C)c1nc(/C=C/C[C@@H]2O[C@]3(C[C@@H](O)[C@@H]2C)O[C@H]([C@H](C[C@H](O)[C@H](C)[C@H](O)[C@H](C)/C=C(C)/C(C)=C/C=C/C(C)=C\C#N)OC)[C@H](OP(=O)(O)O)C3(C)C)co1)N(C)C [calyculin A]
[1]; calyculin A 20 nM
  basal 5-HT uptake: fails to diminish
[1]; calyculin A 20 nM, 15 min preincubation
  blockade of anisomycin stimulation of SERT: completely blocks
[1]; calyculin A 100 nM, fostriecin higher concentrations
  5-HT uptake at higher concentrations: inhibits both basal and anisomycin-stimulated 5-HT uptake

## YGRKKRRQRRRPP-LRK5H-amide [DT-2]
[1]; H8 0.1 μm, DT-2 1.0 μm
  blockade of NECA-induced 5-HT uptake: abolish
[1]
  blockade of 8-Br-cGMP stimulation of SERT: blocked
[1]; [13]
  blockade of anisomycin-stimulated 5-HT uptake / SERT activity: failed to attenuate
[5]; DT-2 1.0 μm
  sensitivity of 8-bromo-cGMP-induced 5-HT transport to PKG antagonist: sensitive
[5]; RN46A, DT-2 1.0 μm
  blockade of anisomycin-stimulated 5-HT uptake: failed to attenuate

## C[S+]([O-])c1ccc(-c2nc(-c3ccc(F)cc3)c(-c3ccncc3)[nH]2)cc1 (stereo not shown) [SB203580]
[12]
  blockade of anisomycin stimulation of NET: blocking stimulation back to basal levels

## bisindolylmaleimide [BIM]
[3]; BIM 1 μM
  blockade of β-PMA downregulation: blocked

## COc1cc(/C=C/C(=O)CC(=O)/C=C/c2ccc(O)c(OC)c2)ccc1O [curcumin]
[1]
  blockade of anisomycin-stimulated 5-HT uptake / SERT activity: lacked antagonistic activity

## O=C1C(Nc2ccccc2)=CC(=O)c2ncccc21 [LY83583]
[1]; [13]
  blockade of anisomycin-stimulated 5-HT uptake / SERT activity: neither agent attenuated anisomycin stimulation
[5]; RN46A, DT-2 1.0 μm
  blockade of anisomycin-stimulated 5-HT uptake: neither agent attenuated anisomycin stimulation
[11]
  blockade of AR stimulation of SERT: completely abolished

## Oc1ccc(-c2nc(-c3ccc(F)cc3)c(-c3ccncc3)[nH]2)cc1 [SB202190]
[1]
  blockade of anisomycin-stimulated 5-HT uptake / SERT activity: blocked anisomycin stimulation of SERT
